For orientation: inhibition means the relative decrease from the control value, in per cent.

Here are results for eight compounds from patent publication US7456292B2, “Hydroxamic acid-containing amino acid derivatives” (Bexel Pharmaceuticals, Inc., priority 2005, dated 2008).

Test [1] has as its system Collagen Induced Arthritis Model. The test is described as follows: Collagen induced arthritis model. The format is in vivo. As to conditions: male DBA/1 Lac mice, oral 50 mg/kg daily. Here is the method:
Arthritis induced in male DBA/1 Lac mice with bovine collagen (100 μg/mouse). Booster dose was given on Day 21 and started treatment when clinical score was about 2. […] Dexamethasone was kept as positive control. Severity of each paw score was defined from 0=no erythma to 4=severe arthritis for the swollen paws with a maximum possible score of 16 for 4 paws (4×4) in one animal.

The test system of test [2] is TNF-α. Kind of test: LPS induced TNF-α in THP-1 monocytic cells. Type of test: cell-based. As to conditions: Homo sapiens, LPS 1 μg/mL 24 hours. Here is the method: Human THP-1 monocyte cells were cultured and incubated with compounds at different concentrations. Cells were then challenged with lipopolysaccharides (LPS) at a concentration of (1 μg/mL) for 24 hours. Cell supernatants were then analyzed for the presence of TNF-α cytokines by antibody directed enzyme-linked immunoassay from R & D System, Minneapolis, USA.

Test [3] has as its system TNF-α. Kind of test: LPS induced sepsis model in mice, serum TNF-α. As to conditions: Mus musculus, SW mice, serum after 90 min. The format is in vivo. Here is the method:
(§1) SW mice were orally treated with vehicle, dexamethasone (5 mg/kg) and compounds at a dose of 50 mg/kg body weight one hour before LPS injection (10 μg/mouse, ip) and blood was collected after 90 min and measured serum TNF-α and IL-6 levels by ELISA.

Test [4] has as its system TNF-α. The test is described as follows: LPS induced TNF-α in hPBMC. As to conditions: Homo sapiens, read-out: Inhibition (%) TNF-α. Type of test: cell-based. How it is done: (§2) Human PBMC monocyte cells were cultured and incubated with compounds at different concentrations. Cells were then challenged with lipopolysaccharides (LPS) at a concentration of (1 μg/mL) for 24 hours. Cell supernatants were then analyzed for the presence of TNF-α, IL-6 and IL-1β cytokines by antibody directed enzyme-linked immunoassay. Dexamethasone was used as a positive control in the experiments.

In test [5] the test system is carrageenan induced paw inflammation. The test is described as follows: Carrageenan induced inflammation in rats. The format is in vivo. Conditions: Sprague-Dowley rats, 50 mg/kg oral, paw volume after 2 and 3 hours. Here is the method: Sprague-Dowley rats with average weight of 250 g (6-7 weeks of age) were randomized in three groups, and given 50 mg/kg oral dose of compound of example 6. Thirty minutes later carrageenan was administered in the sub-planter region of right hind paws. The control group received equal volume of water without any compound. Paw volume was measured after 2 and 3 hours. Dexamethasone at a concentration of 5 mg/kg was used as a positive control in this experiment.

Test [6] concerns IL-12 (p40). The test is described as follows: CD40 ligand-mediated synthesis of IL-12 (p40) in mouse peritoneal macrophages. As to conditions: mouse peritoneal macrophages stimulated with 2 μg/mL soluble CD40 ligand. The format is cell-based. Here is the method:
To further confirm the inhibition of IL-12 secretion mediated by CD40, induction of IL-12 (p40) was examined following activation of macrophages by soluble CD40 ligand, CD 154. Mouse peritoneal macrophages, were stimulated with 2 μg/mL of soluble […] (Immunex) in the presence of compound 22.

The subject of test [7] is intestinal bowel disease (IBD) induced by dextran sodium sulphate (DSS). Kind of test: DSS induced inflammatory bowel disease in mice. The format is in vivo. Conditions: male SW mice, 4% DSS, daily dose 50 mg/kg body weight in PEG400. Here is the method: DAI is comprised of factors such as body weight, stool quality and occult blood content. A 4% solution of DSS was provided as drinking water and DAI was monitored twice a week for the induction of disease. Following this the animals were treated with a daily dose 50 mg/kg body weight of compound 22 in PEG400 formulations and the activity index was monitored twice a week.

The test system of test [8] is Lymphocyte proliferation. Kind of test: MBP induced lymphocyte proliferation (thymidine incorporation). Conditions: MBP stimulated lymph node cells of SJL mice, 72 h. Type of test: cell-based. How it is done:
(§3) FIG. 6: Inhibition of myelin basic protein (MBP) induced […] mice were immunized with 400 μg of myelin basic protein (MBP) in CFA on day 0 and 7 and regional lymph nodes were harvested on day 14 and cultured with MBP in the presence or absence of compound 22 for 72 h. Lymphocyte proliferation was determined by thymidine incorporation assay. Cell culture supernatants from MBP stimulated and compound 22 treated cells were assayed for gamma interferon using ELISA.

Test [9] concerns gamma interferon. Kind of test: Myelin basic protein (MBP) induced gamma interferon in lymph node cultures. Conditions: MBP stimulated lymph node cells of SJL mice, 72 h, ELISA. Type of test: cell-based. Here is the method: as §3
For orientation: ELISA stands for enzyme-linked immunosorbent assay.

Test [10] relates to IL-1β. Kind of test: LPS induced IL-1β in hPBMC. The format is cell-based. As to conditions: Homo sapiens, LPS 1 μg/mL 24 hours. Here is the method:
as §2

Test [11] deals with IL-6. The test is described as follows: LPS induced IL-6 in hPBMC. Type of test: cell-based. As to conditions: Homo sapiens, LPS 1 μg/mL 24 hours. How it is done:
as §2

The subject of test [12] is IL-6. The test is described as follows: LPS induced sepsis model in mice, serum IL-6. The format is in vivo. Conditions: Mus musculus; SW mice, oral 5 mg/kg bw one hour before LPS, serum after 90 min. How it is done:
as §1

The subject of test [13] is IL-12. The test is described as follows: IL-12 secretion following LPS stimulation of mouse spleenic macrophages. The format is cell-based. Conditions: mouse splenic macrophages stimulated with LPS for 72 hrs. The source says: Compound 6 of this class inhibited IL-12 production in mouse splenic macrophages stimulated with LPS for 72 hrs.
The subject of test [14] is T cell proliferation. Kind of test: Inhibition of T cell proliferation. Type of test: cell-based, mice. Here is the method:
SJL mice were immunized with keyhole limpet hemocyanin (KLH) in complete Freund's adjuvant (CFA). 12 days later regional lymph nodes were isolated and a proliferative response to KLH in the presence or absence of drug was performed (in presence of 3H thymidine). The results are expressed at Stimulation index (CPM+antigen/CPM no antigen). Similarly, mitogen induced concanavalin A (CON-A), IL-4, IL-2 induced T cell proliferation was measured in presence of compounds are shown in Table VI.

[15] abbreviates: hPBMC, 10 μM, LPS 1 μg/mL 24 hours, * average of two experiments.

Structures are written as SMILES. Structures can show the parent of a compound that is named as a salt.

Turning to `Cl.NC(Cc1ccc(Oc2ccc(C(=O)NO)cc2)cc1)C(=O)O` (stereo not shown) [Compound 9, 2-amino-3-[4-(4-hydroxycarbamoyl-phenoxy)-phenyl]-propionic acid hydrochloric acid salt], in test [1], the arthritic scores result is listed as “significantly improved the arthritic scores”. The compound also had an inhibition at 10 µM in [2] of 20%. For the same compound, in test [3] (oral 50 mg/kg body weight one hour before LPS), the inhibition at 50 mg/kg is 45%.

For the compound `Cc1ccc(S(=O)(=O)NC(Cc2ccc(Oc3ccc(C(=O)NO)cc3)cc2)C(=O)N(C)C)cc1` (stereo not shown) [Compound 14, 4-{4-[2-Dimethylcarbamoyl-2-(toluene-4-sulfonylamino)-ethyl]-phenoxy}-N-hydroxy-benzamide], the inhibition at 10 µM in [4] (setting [15]) came out at 22%.

`CC(C)OC(=O)C(N)Cc1ccc(Oc2ccc(C(=O)O)cc2)cc1` (stereo not shown) [Compound 15, 4-[4-(2-Amino-2-isopropoxycarbonylethyl)-phenoxy]-benzoicacid]: the inhibition at 10 µM in test [4] (setting [15]) amounted to 40.1%.

As to `CC(C)OC(=O)C(N)Cc1ccc(Oc2ccc(C(=O)NO)cc2)cc1` (stereo not shown) [Compound 16, 2-Amino-3-[4-(4-hydroxycarbamoylphenoxy)-phenyl]-propionic acid isopropyl ester], in test [5], the “inflammation induced by carrageenan (paw volume)” value is on record as “substantially lower the inflammation induced by carrageenan”. Moreover, in test [4] (setting [15]), the inhibition at 10 µM turned out to be 69.2%.

In the case of `CN(C)C(=O)[C@@H](N)Cc1ccc(Oc2ccc(C(=O)NO)cn2)cc1` [Compound 21, L-6-[4-(2-amino-2-dimethylcarbamoyl-ethyl)-phenoxy]-N-hydroxy-nicotinamide hydrochloride], in test [4] (setting [15]), the inhibition at 10 µM was determined as 36.1%.

Regarding `NC(Cc1ccc(Oc2ccc(C(=O)NO)cc2)cc1)C(=O)[O-].[Na+]` (stereo not shown) [Compound 22, 2-amino-3-[4-(4-hydroxycarbamoyl-phenoxy)-phenyl]-propionic acid sodium salt], in [1], the arthritic scores result is “significantly improved the arthritic scores”. The “inhibition of IL-12 (p40)” value in test [6] was “prominent inhibition of IL-12”. The “disease activity index (DAI)” value in test [7] is on record as “lowering of disease activity index”. The “T cell proliferative response” value in test [8] was “normal T cell proliferative response”. Further, the inhibition at 10 µM in [4] (24 h) worked out at 40%. Also, the gamma interferon levels entry in test [9] is “decrease in gamma interferon levels”.

With `C[C@@H]1C[C@H]2[C@@H]3CCC4=CC(=O)C=C[C@]4(C)[C@@]3(F)[C@@H](O)C[C@]2(C)[C@@]1(O)C(=O)CO` [Dexamethasone, reference compound], the inhibition at 10 µM was 26% in [10], 14% in test [11], 70% in [2] and 42% in test [4] (setting [15]). Moreover, the inhibition at 5 mg/kg was 50% in [12] and 70% in test [3] (oral 5 mg/kg bw one hour before LPS).

As to `CS(=O)(=O)c1ccc(C2=C(c3ccccc3)C(=O)OC2)cc1` [rofecoxib, reference compound], in [13], the IL-12 production result is “no effect was observed”. The “effect on T cells (proliferation)” value in test [14] is on record as “did not show any effect on T cells”.
